Experimental data as given in patent US8580762B2, “Substituted purine and 7-deazapurine compounds” (Epizyme, Inc., priority 2010, dated 2013).
Like-named read-outs stand apart in the source and are kept apart here.

Tests used:
[1] = tested on: Jurkat; experiment: In vitro anti-proliferative assay, Jurkat; assay type: cell-based, human; conditions: non-MLL-rearranged, up to 14 days
Description: (§1) In Vitro Anti-Proliferative Assay. The potency and selectivity of the anti-proliferative activity of the compounds of the present invention were assessed using a panel of MLL-rearranged and non-MLL-rearranged human leukemia cell lines. The MLL-rearranged panel included cell lines derived from ALL, AML and biphenotypic leukemias harboring MLL-AF4, MLL-AF9 or MLL-ENL fusions. These cell lines recruit DOT1L. […] Exponentially growing cells were plated, in triplicate, in 96-well plates at a density of 3×10^4 cells/well in a final volume of 150 μl. […] Anti-proliferative activity was determined by cell viability measurements every 3-4 days for up to 14 days.

[2] = Plasma levels of Compound 2 in the xenograft study; assay type: in vivo, female nude mice; conditions: female, nude, mouse; for concentration at 21 day: subcutaneous, read-out: average plasma level from the last sampling on day 21
Description: (§2) Four groups of 20 (Groups 1, 3, 4 and 5), and one group of 8 (Group 2) female nude mice (average weight of 0.023 kg) bearing MV4-11 xenograft tumors of sizes ranging from 80-120 mm^3 were implanted subcutaneously with minipumps (Alzet Model 2001). Group 1 received vehicle only from the pump. Group 2 received vehicle only from the pump plus ip injections tid (8 hours apart) of vehicle. […] Pumps were designed to last for 7 days and were exchanged twice to give total infusion duration of 21 days exposure. […] Tumor size was measured every 4 days. After 21 days the study was terminated, and mean TGI calculated.

[3] = tested on: EOL-1 cells which express an MLL-PTD; experiment: In vitro anti-proliferative assay, EOL-1; assay type: cell-based; conditions: Homo sapiens, EOL1, 336 h; EOL-1, MLL-PTD; up to 14 days
Description: as §1

[4] = tested on: HL-60; experiment: In vitro anti-proliferative assay, HL-60; assay type: cell-based, human; conditions: HL-60, non-MLL-rearranged; up to 14 days
Description: as §1

[5] = tested on: MV4-11 xenograft tumors; experiment: In vivo anti-proliferative assay, mouse xenograft model of MLL-rearranged leukemia; design: species or system female nude mice; conditions: 21 days; for TGI compared to controls: non-statistically significant
Description: as §2, with “In Vivo Anti-Proliferative Assay. The in vivo anti-tumor activity of the compounds of the present invention were assessed in a mouse xenograft model of MLL-rearranged leukemia. Four” for “Four”

[6] = target: DOT1L(1-416) (Homo sapiens, UniProt Q8TEK3); experiment: Determination of IC50: DOT1L(1-416) methyltransferase assay, 3H-SAM, oligonucleosome substrate, Flashplate; assay type: biochemical; conditions: class symbols; read-out: DOT1L IC50
Method in brief: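 Compounds in 10-point 3-fold DMSO dilutions were tested in reactions started with substrate mix of 200 nM [3H]-SAM, 600 nM unlabeled SAM and 20 nM oligonucleosome. Reactions ran 120 min at room temperature and were quenched with 100 μM SAM. Labeled substrate was captured on streptavidin Flashplates and counted by scintillation to give IC50.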

Chain of DOT1L(1-416) (Q8TEK3 1-416): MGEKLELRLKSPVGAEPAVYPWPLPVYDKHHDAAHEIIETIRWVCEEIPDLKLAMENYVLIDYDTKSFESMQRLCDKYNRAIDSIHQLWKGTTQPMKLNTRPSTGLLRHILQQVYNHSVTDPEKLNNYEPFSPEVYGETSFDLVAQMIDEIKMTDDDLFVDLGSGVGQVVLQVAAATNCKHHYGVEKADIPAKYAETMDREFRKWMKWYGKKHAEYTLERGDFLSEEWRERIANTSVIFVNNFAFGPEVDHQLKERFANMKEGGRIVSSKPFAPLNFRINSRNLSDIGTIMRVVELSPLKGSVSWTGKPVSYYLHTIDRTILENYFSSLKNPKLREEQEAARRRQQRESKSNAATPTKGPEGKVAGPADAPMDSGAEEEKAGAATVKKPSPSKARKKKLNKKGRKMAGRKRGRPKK

For `CC(C)N(C[C@H]1O[C@@H](n2cnc3c(N)ncnc32)[C@H](O)[C@@H]1O)[C@H]1C[C@@H](CCc2nc3cc(C(C)(C)C)ccc3[nH]2)C1` [Compound 2, (2R,3R,4S,5R)-2-(6-amino-9H-purin-9-yl)-5-((((1r,3S)-3-(2-(5-(tert-butyl)-1H-benzo[d]imidazol-2-yl)ethyl)cyclobutyl)(isopropyl)amino)methyl)tetrahydrofuran-3,4-diol], the anti-proliferative activity [1] was “no activity”, the Cmax ([2]; Group 3, ip 20 mg/kg tid plus 112 mg/kg/day minipump, read-out: Cmax after each of the tid ip injections) was 4200 to 5000 ng/mL and the concentration at 21 day ([2]; Group 4, 112 mg/kg/day minipump) was 99 ng/mL. For the same compound, the concentration at 21 day ([2]; Group 5, 56 mg/kg/day minipump) was 52 ng/mL, the IC50 [3] was 11 nM and the anti-proliferative activity [4] was “no activity”. The “TGI compared to controls” value ([5]; 56 mg/kg/day minipump (Group 5)) was 43%, the “TGI compared to controls” value ([5]; 112 mg/kg/day minipump (Group 4)) was 38% and the “TGI compared to the controls” value ([5]; Group 3: 112 mg/kg/day minipump plus ip 20 mg/kg tid, total 172 mg/kg/day, statistically significant) was > 70%.

For `CN(C[C@H]1O[C@@H](n2cnc3c(N)ncnc32)[C@H](O)[C@@H]1O)C1CC(NC(=O)Nc2ccc(C(C)(C)C)cc2)C1` (stereo partly drawn) [Compound 8, 1-(3-((((2R,3S,4R,5R)-5-(6-amino-9H-purin-9-yl)-3,4-dihydroxytetrahydrofuran-2-yl)methyl)(methyl)amino)cyclobutyl)-3-(4-(tert-butyl)phenyl)urea], the IC50 [6] was 10000 to 50000 nM.

For `CC(C)(C)c1ccc2[nH]c(CC[C@H]3C[C@H](N(CC4CCC4)C[C@H]4C[C@@H](n5ccc6c(N)ncnc65)[C@H](O)[C@@H]4O)C3)nc2c1` [Compound 59, (1R,2S,3R,5R)-3-(4-amino-7H-pyrrolo[2,3-d]pyrimidin-7-yl)-5-((((1s,3R)-3-(2-(5-(tert-butyl)-1H-benzo[d]imidazol-2-yl)ethyl)cyclobutyl)(cyclobutylmethyl)amino)methyl)cyclopentane-1,2-diol], the IC50 [6] was < 100 nM.

With `CN(C[C@H]1C[C@@H](n2ccc3c(N)ncnc32)[C@H](O)[C@@H]1O)C1CC(CCc2nc3cc(Br)ccc3[nH]2)C1` (stereo partly drawn) [Compound 26, (1R,2S,3R,5R)-3-(4-amino-7H-pyrrolo[2,3-d]pyrimidin-7-yl)-5-(((3-(2-(5-bromo-1H-benzo[d]imidazol-2-yl)ethyl)cyclobutyl)(methyl)amino)methyl)cyclopentane-1,2-diol] the IC50 [6] was < 100 nM.

In the case of `CN(C[C@H]1C[C@@H](n2ccc3c(N)ncnc32)[C@H](O)[C@@H]1O)[C@H]1C[C@H](CCc2nc3cc(Cl)c(Cl)cc3[nH]2)C1` [Compound 58, (1R,2S,3R,5R)-3-(4-amino-7H-pyrrolo[2,3-d]pyrimidin-7-yl)-5-((((1s,3R)-3-(2-(5,6-dichloro-1H-benzo[d]imidazol-2-yl)ethyl)cyclobutyl)(methyl)amino)methyl)cyclopentane-1,2-diol], the IC50 [6] is reported as < 100 nM.

`CN(C[C@H]1O[C@@H](n2cnc3c(N)ncnc32)[C@H](O)[C@@H]1O)[C@H]1C[C@@H](CCc2nc3cc(C4COC4)ccc3[nH]2)C1` [Compound 63] gave an IC50 [6] of 100 to 1000 nM.

In the case of `CN(C[C@H]1O[C@@H](n2cnc3c(N)ncnc32)[C@H](O)[C@@H]1O)[C@H]1C[C@@H](CCc2nc3cc(C(C)(C)C)ccc3[nH]2)C1` [Compound 71, (2R,3R,4S,512)-2-(6-amino-9H-purin-9-yl)-5-((((1r,3S)-3-(2-(5-(tert-butyl)-1H-benzo[d]imidazol-2-yl)ethyl)cyclobutyl)(methyl)amino)methyl)tetrahydrofuran-3,4-diol], the IC50 [6] is reported as < 100 nM.
